Entries after “also recorded” stand apart in the source; their conditions may differ.
Tests used:
[1] = tested on: GM2 and GM3 gangliosides in primary cultures of cortical neurons; assay: Fluorescence intensity of GM2 / GM3 immunostaining in primary cultures of cortical neurons; type: cell-based, mouse; details: for increase in overall GM2 levels: glutamate treatment
Procedure: Mouse primary cultures of cortical neurons were treated with Miglustat (Tocris) from the second day in culture. Medium was changed every three days. Immunostaining were performed after six days of culture in vitro, as previously described (Murmu et al., 2011). To downregulate GM3 synthase expression, vectors expressing miRNA were produced using the Block-it kit (Life Technologies). The miRNA sequences were: […] TGTACAT (miRNA GM3S-1) (SEQ ID NO: 3), […] (miRNA GM3S-2) (SEQ ID NO: 4), […] CTGTAGA (miRNA Neu1-1) (SEQ ID NO: 5) and […] ATCGTAG (miRNA Neu1-2) (SEQ ID NO: 6). Neurons were transfected with vectors expressing the miRNA and GFP using the Neon transfection system (Life Technologies). The efficiency of the miRNA sequences was validated by transfecting NIH-3T3 cells and performing quantitative RT-PCR using a LightCycler 480 apparatus (Roche) following the manufacturer's instructions. […] Quantification of gangliosides levels was performed either with an automated ArrayScan XTI apparatus (Thermo-Fisher) using the General Intensity Measurement protocol, or with ImageJ on image acquired on a Nikon Eclipse Ti-U microscope. […] Colocalization of ganglioside staining with lysosomes was quantified using ImageJ. A mask was made from the Lamp1 staining channel and the corresponding ganglioside fluorescence was quantified as the percentage of total ganglioside fluorescence in every cell. […] To quantify neuronal death, 30 hours after glutamate treatment all neurons were labeled with 100 nM Cell tracker Deep Red (Life Technologies) and dead cells were labeled by propidium iodide (5 μM). […] The number of Tuj-1-positive cells per well was quantified with an automated ArrayScan XTI apparatus (Thermo-Fisher) using the compartmental analysis protocol. Neuronal death was quantified by comparing glutamate-treated and non-treated neurons.

[2] = tested on: p62; assay: Western blot analysis of p62 levels in cortical neurons; type: cell-based, mouse
[3] = tested on: cultured neurons; details: glutamate treatment; cited from earlier work
[4] = tested on: primary cultures of Spg11+/+ and Spg11−/− cortical neurons; assay: Neuronal death triggered by glutamate in primary cultures of cortical neurons; type: cell-based, mouse; details: glutamate 200 μM, 30 hours
Procedure: (§1) Mouse primary cultures of cortical neurons were treated with Miglustat (Tocris) from the second day in culture. Medium was changed every three days. Immunostaining were performed after six days of culture in vitro, as previously described (Murmu et al., 2011). To downregulate GM3 synthase expression, vectors expressing miRNA were produced using the Block-it kit (Life Technologies). The miRNA sequences were: […] TGTACAT (miRNA GM3S-1) (SEQ ID NO: 3), […] (miRNA GM3S-2) (SEQ ID NO: 4), […] CTGTAGA (miRNA Neu1-1) (SEQ ID NO: 5) and […] ATCGTAG (miRNA Neu1-2) (SEQ ID NO: 6). Neurons were transfected with vectors expressing the miRNA and GFP using the Neon transfection system (Life Technologies). The efficiency of the miRNA sequences was validated by transfecting NIH-3T3 cells and performing quantitative RT-PCR using a LightCycler 480 apparatus (Roche) following the manufacturer's instructions. […] Quantification of gangliosides levels was performed either with an automated ArrayScan XTI apparatus (Thermo-Fisher) using the General Intensity Measurement protocol, or with ImageJ on image acquired on a Nikon Eclipse Ti-U microscope. […] Colocalization of ganglioside staining with lysosomes was quantified using ImageJ. A mask was made from the Lamp1 staining channel and the corresponding ganglioside fluorescence was quantified as the percentage of total ganglioside fluorescence in every cell. […]

[5] = tested on: autolysosomes in Spg11+/+ and Spg11−/− neurons; assay: Proportion of Lamp1-stained lysosomes also positive for p62 (autolysosomes) in cultured cortical neurons; type: cell-based, mouse; details: miglustat 100 μM, six days in vitro
Procedure: as §1

[6] = tested on: zebrafish zspg11 morphants; assay: Zebrafish zspg11 model: phenotype of morphants 48 hours post fertilization; type: in vivo; details: 48 hpf; for motor phenotype of morphants: injection of 1.2 pmol morpholino vs mismatch or non-injected
Procedure: (§2) Modeling of Spg11 pathology in zebrafish was performed as described previously (Martin, 2012). The knock-down of zspg11 was performed using a morpholino targeting a splice donor site, zspg11spl (5′-[…]-3′—SEQ ID NO: 88). The control morpholino mmzspg11spl (5′-ACgAATgATAGCcTCTCGTAgCgTC-3′—SEQ ID NO: 89) containing five mismatch nucleotides was used to distinguish specific phenotypic effects resulting from the knock-down of zspg11 from non-specific effects due to injection or morpholino toxicity. One nl of 1.2 mM solution of zspg11spl or mmzspg11spl were injected into the yolk of one- to two-cell stage embryos. After injection, embryos were maintained at 28° C. in E3 medium, containing miglustat (Tocris Bioscience) at 100 or 300 uM or DMSO for control groups. At 24 hpf they were manually dechorionated using fine forceps. […] To quantify motor activity, we monitored the touch-evoked escape response at 48 hours post-fertilization in fishes with no obvious developmental abnormalities as previously described (Martin, 2012). Images were acquired at 500 images per sec. Tracking of the touch evoked escape response was performed using the Image J manual tracking plugin. Assessment of GM2 ganglioside levels was performed by whole-mount in vivo immunohistochemistry using 48 hpf embryos fixed in 4% paraformaldehyde in PBS for 2 h at room temperature. Embryos were washed 3 times (5 min each) in PBS-0.1% Triton X-100 (PBST). Embryos were blocked for 1 h in 5% normal goat serum in PBS containing 1% DMSO and 1% Triton X-100 (PBDT), then incubated overnight at 4° C. in blocking solution containing the GM2 primary antibody. […] Larvae were oriented in the same position for image capture to minimize potential biases in quantification. […] Using ImageJ software, the maximum intensity projections of z-stacks were used for quantification of fluorescence in the telencephalon. Mean and variance of the fluorescence intensity were quantified for each morphant in a square of 100 pixels per 100 pixels.

[7] = tested on: zebrafish zspg11 morphants; assay: Zebrafish zspg11 model: touch-evoked escape response; type: in vivo; details: for distance travelled following a touch-evoked escape response: treated with miglustat; for swimming / touch-induced escape: injection of 1.2 pmol morpholino vs mismatch morpholino
Procedure: Modeling of Spg11 pathology in zebrafish was performed as described previously (Martin, 2012). The knock-down of zspg11 was performed using a morpholino targeting a splice donor site, zspg11spl (5′-[…]-3′—SEQ ID NO: 88). The control morpholino mmzspg11spl (5′-ACgAATgATAGCcTCTCGTAgCgTC-3′—SEQ ID NO: 89) containing five mismatch nucleotides was used to distinguish specific phenotypic effects resulting from the knock-down of zspg11 from non-specific effects due to injection or morpholino toxicity. One nl of 1.2 mM solution of zspg11spl or mmzspg11spl were injected into the yolk of one- to two-cell stage embryos. After injection, embryos were maintained at 28° C. in E3 medium, containing miglustat (Tocris Bioscience) at 100 or 300 uM or DMSO for control groups. At 24 hpf they were manually dechorionated using fine forceps. […] To quantify motor activity, we monitored the touch-evoked escape response at 48 hours post-fertilization in fishes with no obvious developmental abnormalities as previously described (Martin, 2012). Images were acquired at 500 images per sec. Tracking of the touch evoked escape response was performed using the Image J manual tracking plugin. Assessment of GM2 ganglioside levels was performed by whole-mount in vivo immunohistochemistry using 48 hpf embryos fixed in 4% paraformaldehyde in PBS for 2 h at room temperature. Embryos were washed 3 times (5 min each) in PBS-0.1% Triton X-100 (PBST). Embryos were blocked for 1 h in 5% normal goat serum in PBS containing 1% DMSO and 1% Triton X-100 (PBDT), then incubated overnight at 4° C. in blocking solution containing the GM2 primary antibody. After 4 washes in PBST at room temperature, embryos were incubated with an anti IgM antibody coupled to Alexa-488 (Thermo Fishser), overnight at room temperature in PBDT. Before observation, embryos were washed 3 times in PSBT and mounted in a drop of Fluoromount™ Aqueous Mounting Medium (Sigma Aldrich). Whole-mount embryos were imaged on a confocal microscope (Leica SP8, 40X, NA 0.8). Larvae were oriented in the same position for image capture to minimize potential biases in quantification. Image stacks were collected with a step-size of 0.35 μm. Using ImageJ software, the maximum intensity projections of z-stacks were used for quantification of fluorescence in the telencephalon. Mean and variance of the fluorescence intensity were quantified for each morphant in a square of 100 pixels per 100 pixels.

[8] = tested on: GM2 in the telencephalon of zebrafish morphants; assay: Zebrafish zspg11 model: GM2 immunostaining in the telencephalon; type: in vivo; details: for GM2 immunostaining in the telencephalon: injection of 1.2 pmol morpholino vs mismatch morpholino
Procedure: as §2

[9] = tested on: mouse model of Tay Sachs disease; details: cited from earlier work

Compound: N[C@@H](CCC(=O)O)C(=O)O [Glutamate, glutamate]
- increase in overall GM2 levels ([1]; Spg11−/− neurons, p=0.007, n>10): 15.7±3.9%
- increase in overall GM2 levels ([1]; control neurons, p=0.02, n>9): 20.0±4.6%
- p62 levels ([2]; Spg11−/− neurons treated with glutamate (200 μM) for 24 hours): significantly increased
- p62 levels ([2]; control neurons treated with glutamate (200 μM) for 24 hours): no difference
- ganglioside levels [3]: increase ganglioside levels

Compound: CCCCN1C[C@H](O)[C@@H](O)[C@H](O)[C@H]1CO [Miglustat, N-butyldeoxynojirimycin]
- neuronal death induced by glutamate [4]: prevented neuronal death induced by glutamate; also recorded: decreased the neuronal death induced by glutamate in a dose-dependent manner
- levels of GM2 (fluorescence intensity of GM2 immunostaining) ([1]; control and Spg11−/− cortical neurons, six days in vitro): significantly decreased the levels of GM2 in a dose-dependent manner
- proportion of lysosomes positive for the p62 marker [5]: strongly decreased
- glutamate-induced increase of p62 levels ([2]; Spg11−/− neurons, miglustat 100 μM, glutamate 200 μM for 24 hours, p62 normalized to tubulin): inhibited
- proportion of paralyzed larvae ([6]; larvae injected with zspg11spl morpholino, miglustat 100 or 300 uM in medium): decreased the proportion of paralyzed morphants; also recorded: significantly reduced in a dose-dependent manner
- distance travelled following a touch-evoked escape response ([7]; morphants injected with mismatch morpholino): no effect
- distance travelled following a touch-evoked escape response ([7]; morphants injected with zspg11spl morpholino, 48 hpf): corrected when treated by miglustat; also recorded: significantly corrected
- GM2 immunostaining intensity (mean and variance) in the telencephalon ([8]; morphants injected with zspg11spl morpholino, treated with miglustat, 48 hpf): corrected when morphants were treated with miglustat; also recorded: corrected in larvae treated by miglustat
- brain levels of GM2 [9]: decrease brain levels of GM2

Compound: zspg11spl: morpholino targeting a splice donor site for knock-down of zspg11, 5′-ACCAATCATAGCGTCTCGTACCCTC-3′ (all phosphorodiamidate morpholino (PMO))
- motor phenotype of morphants [6]: large proportion of paralyzed or slowly swimming phenotypes
- motor phenotype of morphants ([6]; listed as zspg11 morpholinos): either a loss of motility or a paralysis
- swimming / touch-induced escape [7]: impaired the swimming
- swimming / touch-induced escape ([7]; listed as zspg11 morpholinos): significantly shorter touch-induced escapes
- GM2 immunostaining in the telencephalon [8]: increased the mean and variance of GM2 immunostaining intensity
- GM2 immunostaining in the telencephalon ([8]; listed as zspg11 morpholinos): stronger GM2 staining

Source: patent publication US11065238B2, “Inhibitors of gangliosides metabolism for the treatment of motor neuron diseases” (ICM (INSTITUT DU CERVEAU ET DE LA MOELLE ÉPINIÈRE), priority 2016, dated 2021)
